Source: patent publication US20090018111A1, “Novel Antimicrobial Medicament” (priority 2004, published 2009)
Like-named read-outs stand apart in the source and are kept apart here.

Experiments:
Test in all cases: Sensitivity test (agar dilution), clinical isolate
[1] = test system: Acinetobacter spp. 1398-2; format: cell-based, Acinetobacter calcoaceticus and Acinetobacter lwoffi
Procedure: (§1) In addition, the antibacterial activities were tested against strains which are comparatively less sensitive to β-lactam compounds, namely clinically isolated 13 strains of Acinetobacter calcoaceticus and Acinetobacter lwoffi, clinically isolated 11 strains of Serratia marcescens, clinically isolated 12 strains of Burkholderia cepacia, and clinically isolated 15 strains of Pseudomonas aeruginosa.
(§2) According to the standard method of Japan Chemotherapeutic Society (Chemotherapy, vol. […], p 76-79 (1981)) the test was carried out using the agar dilution method. After dissolving test samples in distilled water, agar medium containing the test samples was prepared in such a manner that the final concentration became twice serial dilution by pouring serially diluted combination drug solution or a single drug solution into agar medium. As agar medium was used Mueller Hinton Agar medium (MHA). Then, each strain was cultivated over night at 37° C. in an incubator and suspended in buffered saline solution with gelatin (BSG) in the concentration of about 10^6 CFU/ml. The suspension (about 5 μl) containing test strains was inoculated to the medium containing the test samples by Micro Planter.
(§3) Each drug was weighed, and dissolved in distilled water to give a test sample. When the drugs are used in combination, two kinds of solution containing each drug were mixed so as to be various ratio of concentration to give a mixed solution. When the sample is subjected to sensitivity test, this mixed solution was diluted by twice serial dilution method.
(§4) Furthermore, when the drug is solely used, each test sample was used as it is, and diluted by twice serial dilution method from the maximum concentration to the minimum concentration.

Acinetobacter spp. 256 = format: cell-based, Acinetobacter calcoaceticus and Acinetobacter lwoffi
Procedure: as §1, §2, §3, §4

[2] = test system: Acinetobacter spp. Jan-99; format: cell-based, Acinetobacter calcoaceticus and Acinetobacter lwoffi
Procedure: as §1, §2, §3, §4

S. marcescens 14424 = format: cell-based, Serratia marcescens
Procedure: as §1, §2, §3, §4

S. marcescens 14425 = format: cell-based, Serratia marcescens
Procedure: as §1, §2, §3, §4

S. marcescens 14689 = format: cell-based, Serratia marcescens
Procedure: as §1, §2, §3, §4

S. marcescens 14981 = format: cell-based, Serratia marcescens
Procedure: as §1, §2, §3, §4

S. marcescens 14991 = format: cell-based, Serratia marcescens
Procedure: as §1, §2, §3, §4

S. marcescens 1928513 = format: cell-based, Serratia marcescens
Procedure: as §1, §2, §3, §4

S. marcescens 1944950 = format: cell-based, Serratia marcescens
Procedure: as §1, §2, §3, §4

S. marcescens 2012884 = format: cell-based, Serratia marcescens
Procedure: as §1, §2, §3, §4

S. marcescens 2054522 = format: cell-based, Serratia marcescens
Procedure: as §1, §2, §3, §4

S. marcescens 7138 = format: cell-based, Serratia marcescens
Procedure: as §1, §2, §3, §4

S. marcescens 7155 = format: cell-based, Serratia marcescens
Procedure: as §1, §2, §3, §4

P. aeruginosa 15019 = format: cell-based, Pseudomonas aeruginosa
Procedure: as §1, §2, §3, §4

C[C@@H](O)[C@H]1C(=O)N2C(C(=O)O)=C(S[C@@H]3CN[C@H](C(=O)N(C)C)C3)[C@H](C)[C@H]12 [MEPM, meropenem]
MIC ([1]; SPP.13982, Concomitant (ME:SM = 1:1)): 2 µg/mL
MIC ([1]; SPP.13982, Concomitant (ME:SM = 1:2)): 2 µg/mL
MIC ([1]; SPP.13982, Concomitant (ME:SM = 1:4)): 1 µg/mL
MIC ([1]; SPP.13982, Concomitant (ME:SM = 2:1)): 4 µg/mL
MIC ([1]; SPP.13982, alone): 32 µg/mL
MIC (Acinetobacter spp. 256; SPP.256, Concomitant (ME:SM = 1:1)): 0.5 µg/mL
MIC (Acinetobacter spp. 256; SPP.256, Concomitant (ME:SM = 1:2)): 0.5 µg/mL
MIC (Acinetobacter spp. 256; SPP.256, Concomitant (ME:SM = 1:4)): 0.25 µg/mL
MIC (Acinetobacter spp. 256; SPP.256, Concomitant (ME:SM = 2:1)): 0.5 µg/mL
MIC (Acinetobacter spp. 256; SPP.256, alone): 1 µg/mL
MIC ([2]; Acinetobacter): 0.125 µg/mL
MIC ([2]; Acinetobacter, Concomitant (ME:SM = 1:1), read-out: MIC): 0.25 µg/mL
MIC ([2]; Acinetobacter, Concomitant (ME:SM = 2:1), read-out: MIC): 0.25 µg/mL
MIC ([2]; Acinetobacter, alone, read-out: MIC): 0.25 µg/mL
MIC ([2]; Concomitant (ME:SM = 1:2)): 0.125 µg/mL
MIC (S. marcescens 14424; Serratia marcescens, 14424, Concomitant (ME:SM = 1:1)): 8 µg/mL
MIC (S. marcescens 14424; Serratia marcescens, 14424, Concomitant (ME:SM = 1:2)): 2 µg/mL
MIC (S. marcescens 14424; Serratia marcescens, 14424, Concomitant (ME:SM = 1:4)): 2 µg/mL
MIC (S. marcescens 14424; Serratia marcescens, 14424, Concomitant (ME:SM = 2:1)): 4 µg/mL
MIC (S. marcescens 14424; Serratia marcescens, 14424, alone): 4 µg/mL
MIC (S. marcescens 14425; Serratia marcescens, 14425, Concomitant (ME:SM = 1:1)): 0.031 µg/mL
MIC (S. marcescens 14425; Serratia marcescens, 14425, Concomitant (ME:SM = 1:2)): 0.031 µg/mL
MIC (S. marcescens 14425; Serratia marcescens, 14425, Concomitant (ME:SM = 1:4)): 0.031 µg/mL
MIC (S. marcescens 14425; Serratia marcescens, 14425, Concomitant (ME:SM = 2:1)): 0.031 µg/mL
MIC (S. marcescens 14425; Serratia marcescens, 14425, alone): 0.031 µg/mL
MIC (S. marcescens 14689; Serratia marcescens, 14689, Concomitant (ME:SM = 1:1)): 2 µg/mL
MIC (S. marcescens 14689; Serratia marcescens, 14689, Concomitant (ME:SM = 1:2)): 2 µg/mL
MIC (S. marcescens 14689; Serratia marcescens, 14689, Concomitant (ME:SM = 1:4)): 2 µg/mL
MIC (S. marcescens 14689; Serratia marcescens, 14689, Concomitant (ME:SM = 2:1)): 4 µg/mL
MIC (S. marcescens 14689; Serratia marcescens, 14689, alone): 4 µg/mL
MIC (S. marcescens 14981; Serratia marcescens, 14981, Concomitant (ME:SM = 1:1)): 1 µg/mL
MIC (S. marcescens 14981; Serratia marcescens, 14981, Concomitant (ME:SM = 1:2)): 0.5 µg/mL
MIC (S. marcescens 14981; Serratia marcescens, 14981, Concomitant (ME:SM = 1:4)): 0.5 µg/mL
MIC (S. marcescens 14981; Serratia marcescens, 14981, Concomitant (ME:SM = 2:1)): 1 µg/mL
MIC (S. marcescens 14981; Serratia marcescens, 14981, alone): 1 µg/mL
MIC (S. marcescens 14991; Serratia marcescens, 14991, Concomitant (ME:SM = 1:1)): 2 µg/mL
MIC (S. marcescens 14991; Serratia marcescens, 14991, Concomitant (ME:SM = 1:2)): 1 µg/mL
MIC (S. marcescens 14991; Serratia marcescens, 14991, Concomitant (ME:SM = 1:4)): 1 µg/mL
MIC (S. marcescens 14991; Serratia marcescens, 14991, Concomitant (ME:SM = 2:1)): 1 µg/mL
MIC (S. marcescens 14991; Serratia marcescens, 14991, alone): 1 µg/mL
MIC (S. marcescens 1928513; Serratia marcescens, 1928513, Concomitant (ME:SM = 1:1)): 1 µg/mL
MIC (S. marcescens 1928513; Serratia marcescens, 1928513, Concomitant (ME:SM = 1:2)): 0.5 µg/mL
MIC (S. marcescens 1928513; Serratia marcescens, 1928513, Concomitant (ME:SM = 1:4)): 0.5 µg/mL
MIC (S. marcescens 1928513; Serratia marcescens, 1928513, Concomitant (ME:SM = 2:1)): 1 µg/mL
MIC (S. marcescens 1928513; Serratia marcescens, 1928513, alone): 1 µg/mL
MIC (S. marcescens 1944950; Serratia marcescens, 1944950, Concomitant (ME:SM = 1:1)): 8 µg/mL
MIC (S. marcescens 1944950; Serratia marcescens, 1944950, Concomitant (ME:SM = 1:2)): 4 µg/mL
MIC (S. marcescens 1944950; Serratia marcescens, 1944950, Concomitant (ME:SM = 1:4)): 4 µg/mL
MIC (S. marcescens 1944950; Serratia marcescens, 1944950, Concomitant (ME:SM = 2:1)): 8 µg/mL
MIC (S. marcescens 1944950; Serratia marcescens, 1944950, alone): 8 µg/mL
MIC (S. marcescens 2012884; Serratia marcescens, 2012884, Concomitant (ME:SM = 1:1)): 2 µg/mL
MIC (S. marcescens 2012884; Serratia marcescens, 2012884, Concomitant (ME:SM = 1:2)): 2 µg/mL
MIC (S. marcescens 2012884; Serratia marcescens, 2012884, Concomitant (ME:SM = 1:4)): 1 µg/mL
MIC (S. marcescens 2012884; Serratia marcescens, 2012884, Concomitant (ME:SM = 2:1)): 4 µg/mL
MIC (S. marcescens 2012884; Serratia marcescens, 2012884, alone): 4 µg/mL
MIC (S. marcescens 2054522; Serratia marcescens, 2054522, Concomitant (ME:SM = 1:1)): 1 µg/mL
MIC (S. marcescens 2054522; Serratia marcescens, 2054522, Concomitant (ME:SM = 1:2)): 0.5 µg/mL
MIC (S. marcescens 2054522; Serratia marcescens, 2054522, Concomitant (ME:SM = 1:4)): 0.5 µg/mL
MIC (S. marcescens 2054522; Serratia marcescens, 2054522, Concomitant (ME:SM = 2:1)): 1 µg/mL
MIC (S. marcescens 2054522; Serratia marcescens, 2054522, alone): 1 µg/mL
MIC (S. marcescens 7138; Serratia marcescens, 7138, Concomitant (ME:SM = 1:1)): 2 µg/mL
MIC (S. marcescens 7138; Serratia marcescens, 7138, Concomitant (ME:SM = 1:2)): 1 µg/mL
MIC (S. marcescens 7138; Serratia marcescens, 7138, Concomitant (ME:SM = 1:4)): 0.5 µg/mL
MIC (S. marcescens 7138; Serratia marcescens, 7138, Concomitant (ME:SM = 2:1)): 2 µg/mL
MIC (S. marcescens 7138; Serratia marcescens, 7138, alone): 2 µg/mL
MIC (S. marcescens 7155; Serratia marcescens, 7155, Concomitant (ME:SM = 1:1)): 2 µg/mL
MIC (S. marcescens 7155; Serratia marcescens, 7155, Concomitant (ME:SM = 1:2)): 1 µg/mL
MIC (S. marcescens 7155; Serratia marcescens, 7155, Concomitant (ME:SM = 1:4)): 0.5 µg/mL
MIC (S. marcescens 7155; Serratia marcescens, 7155, Concomitant (ME:SM = 2:1)): 2 µg/mL
MIC (S. marcescens 7155; Serratia marcescens, 7155, alone): 2 µg/mL
MIC (P. aeruginosa 15019; Pseudomonas aeruginosa, 15019, Concomitant (ME:SM = 1:1)): 4 µg/mL
MIC (P. aeruginosa 15019; Pseudomonas aeruginosa, 15019, Concomitant (ME:SM = 1:2)): 4 µg/mL
MIC (P. aeruginosa 15019; Pseudomonas aeruginosa, 15019, Concomitant (ME:SM = 1:4)): 2 µg/mL
MIC (P. aeruginosa 15019; Pseudomonas aeruginosa, 15019, Concomitant (ME:SM = 2:1)): 4 µg/mL
MIC (P. aeruginosa 15019; Pseudomonas aeruginosa, 15019, alone): 4 µg/mL
